Measured values as given in PubChem BioAssay (NCI).
Several values for one entry are separate records, joined by “and”; a condition that tells them apart may be missing. Equal values may be shown once.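 Following 48 hours of exposure in 96-well plates, responses at five concentrations were used to interpolate endpoints linearly. GI50: concentration for 50% inhibition of growth. TGI: total growth inhibition.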

Tests used:
Assay in all cases: NCI-60 cell line screen, 48 h
RPMI-8226 leukemia = system: RPMI-8226 leukemia
HT29 colon = system: HT29 colon
MALME-3M melanoma = system: MALME-3M melanoma
U251 CNS = system: U251 CNS
SF-268 CNS = system: SF-268 CNS
UACC-257 melanoma = system: UACC-257 melanoma
MOLT-4 leukemia = system: MOLT-4 leukemia
SR leukemia = system: SR leukemia
TK-10 renal = system: TK-10 renal
MDA-MB-435 = system: MDA-MB-435

| Structure (SMILES) | GI50 (RPMI-8226 leukemia) [µM] | TGI (RPMI-8226 leukemia) [µM] | GI50 (HT29 colon) [µM] | TGI (HT29 colon) [µM] | GI50 (MALME-3M melanoma) [µM] | TGI (MALME-3M melanoma) [µM] | GI50 (U251 CNS) | TGI (U251 CNS) [µM] | GI50 (SF-268 CNS) [µM] | TGI (SF-268 CNS) [µM] | GI50 (UACC-257 melanoma) [µM] | TGI (UACC-257 melanoma) [µM] | GI50 (MOLT-4 leukemia) [µM] | TGI (MOLT-4 leukemia) [µM] | GI50 (SR leukemia) [µM] | TGI (SR leukemia) [µM] | TGI (TK-10 renal) [µM] | GI50 (MDA-MB-435) [µM] | TGI (MDA-MB-435) [µM] | GI50 (TK-10 renal) [µM] |
| --- | --- | --- | --- | --- | --- | --- | --- | --- | --- | --- | --- | --- | --- | --- | --- | --- | --- | --- | --- | --- |
| [O-][Cl+3]([O-])([O-])[O-].[O]=[Ru]=[O].c1ccc(-c2ccccn2)nc1.c1ccc(-c2ccccn2)nc1 | 29.7 | > 100 | > 100 | > 100 | > 100 | > 100 | > 100 µM | > 100 | 65.7 | > 100 | > 100 | > 100 | > 100 | > 100 | 4.07 | 34.7 |  |  |  |  |
| CCCCCCCCCCCCNC(=S)OC |  | 27.5 |  | 32.8 |  | 29.5 |  | 29.5 |  | 32.8 |  | 32.5 |  | 9.43 |  | 17.9 | 34.5 |  |  |  |
| O=c1[nH]c(-c2ccccc2)nc2cc(Cl)ccc12 |  | > 100 |  | > 100 |  | > 100 |  | > 100 |  |  |  | > 100 |  | > 100 |  |  | > 100 |  |  |  |
| O=C(NC1CCCCC1)NS(=O)(=O)c1ccc(N2N=C3c4ccccc4CC3C2c2ccc(Cl)cc2)cc1 (stereo not drawn) | 3.57 | 22.6 | 32.5 | > 100 |  |  | 10.1 µM | 21.7 | 6.78 | 34.9 | 19.7 | 53 | 4.04 | 19.4 | 0.406 | 1.85 | 19.8 | 18.5 | 50.3 | 4.5 |
| Cc1[cH-]c(=O)n(-c2ccccc2)n1.[Au+].[Au].c1ccc([PH+](c2ccccc2)c2ccccc2)cc1.c1ccc([PH+](c2ccccc2)c2ccccc2)cc1 | 99.4 | > 100 | 53.5 | > 100 | 9.61 | 31.1 | 4.97 µM and 13.1 µM | 27.3 | 7.14 | 31.9 | 25.4 | 91.3 | 36.6 | > 100 | 26.4 | > 100 | 31.9 |  |  | 16.6 |
| CCOC(=O)C1=C(C)N(NC(=O)Nc2ccccc2)C2(N)N(NC(=O)Nc3ccccc3)C(C)=C(C(=O)OCC)C12C(=O)OCC (stereo not drawn) |  | > 100 |  | > 100 |  | 93.5 |  | > 100 |  | > 100 |  | > 100 |  |  |  | > 100 | > 100 |  |  |  |
| Br[Se]c1ccccn1 |  | 60.9 |  | 53.9 |  | 31.2 |  | 29 |  | 32.2 |  | 31.7 |  |  |  | 65.8 | 34.5 |  | 31.8 |  |
| O=C(Nc1nc(=S)[nH][nH]1)C(=O)C(C(=O)c1ccc2ccccc2c1)C1OC(=O)c2ccccc21 (stereo not drawn) |  | 40.2 |  | > 100 |  | > 100 |  | > 100 |  | > 100 |  | 76.5 |  | 21.1 |  |  | 80.3 |  |  |  |
| CC1(C)CC(c2c[nH]c3ccccc23)=CC2=Nc3ccccc3C21O (stereo not drawn) |  | > 100 |  | > 100 |  | > 100 |  | > 100 |  | > 100 |  | > 100 |  | > 100 |  |  | > 100 |  |  |  |
| CC(C)[C@@H]1NC(=O)[C@]2(C)CSC(=N2)c2ccnc(c2)CNC(=O)C[C@@H](/C=C/CCS)OC1=O | 1.49 | > 27.7 | 0.242 | 1.57 |  |  | 0.107 µM | 0.73 | 0.421 | > 100 | 0.0376 | 0.526 | 0.128 | > 100 | 0.0641 | > 100 | 1.64 | 0.111 | 6.13 | 0.178 |
| S=P1(Oc2ccccc2)NNP2(=NP(N3CC3)(N3CC3)=NP(N3CC3)(N3CC3)=N2)NN1 (stereo not drawn) |  | > 100 |  | > 100 |  | > 100 |  | > 100 |  | > 100 |  | > 100 |  | > 100 |  |  | > 100 |  |  |  |
| C#Cc1cccc(Nc2nc3cc([N+](=O)[O-])ccc3nc2Nc2ccc(O)cc2)c1 | 2.24 | 8 | 1.71 | 3.42 | 1.93 | 4.32 | 1.8 µM | 3.71 | 1.56 | 3.45 | 2.09 | 4.34 | 1.2 | 4.17 |  |  |  | 1.67 | 3.39 |  |
| O=C1C(C(Nc2ccccc2)c2ccccc2)=C([O-])c2ccccc21.O=C1C(C(Nc2ccccc2)c2ccccc2)=C([O-])c2ccccc21.[Cu+2] (stereo not drawn) | 24.8 | > 100 | 33.1 | > 100 | 65.8 | > 100 | 22.5 µM | 65.4 |  |  | > 100 | > 100 | 25.5 | > 100 | 42.2 | > 100 | > 100 |  |  | > 100 |
| COc1c(CC(C)=O)ccc2c1C(=O)c1ccc(C=O)c(OC(C)=O)c1C2=O |  | 63.3 |  | 37.9 |  | 25.5 |  | 36.8 |  |  |  | 28.3 |  | 47.6 |  |  | 75.1 |  |  |  |
| Clc1ccc2cccc3c2c1C1OC3c2ccccc21 (stereo not drawn) |  | > 100 |  | > 100 |  | > 100 |  | > 100 |  | > 100 |  | > 100 |  | > 100 |  | > 100 | > 100 |  |  |  |
| C[C@@H]1CC[C@H]2C(C)(C)[C@H]3C[C@@]12CC[C@@]3(C)O |  | 53.6 |  | > 100 |  |  |  |  |  | > 100 |  | > 100 |  | > 100 |  | 48.6 | > 100 |  | > 100 |  |
| O=C(/C=C/c1c(O)ccc2ccccc12)c1ccc([N+](=O)[O-])cc1 |  | > 100 |  | > 100 |  | 49.7 |  | > 100 |  | > 100 |  | 74 |  | > 90.4 |  | > 100 | > 96.4 |  |  |  |
| NCCNCCNCCN |  |  | > 100 | > 100 |  |  | > 100 µM | > 100 | > 100 | > 100 | > 100 | > 100 | > 100 | > 100 | > 100 | > 100 | > 100 | > 100 | > 100 | > 100 |
